Experimental data taken from ChEMBL document CHEMBL1201862, “PubChem BioAssay data set” (2004).
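1) Cells in 96-well plates. 2) Compound, 48 h, 5 concentrations. 3) Linear interpolation between surrounding doses. 4) Unreached endpoint = highest concentration. GI50 = concentration required for 50% inhibition of growth.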 Active and inactive are the calls of the source. No stated cut-off is given here; in the data, active = GI50 up to about 1.1 µM and inactive = higher.

Assays:
Test in all cases: NCI anticancer screen, dose series, 48 h
A498 = system: A498
COLO 205 = system: COLO 205
EKVX = system: EKVX
HCT-15 = system: HCT-15
HOP-62 = system: HOP-62
HOP-92 = system: HOP-92
K562 = system: K562
LOX IMVI = system: LOX IMVI
MCF7 = system: MCF7
MDA-N = system: MDA-N
Malme-3M = system: Malme-3M
NCI/ADR-RES = system: NCI/ADR-RES
OVCAR-3 = system: OVCAR-3
PC-3 = system: PC-3
SF-295 = system: SF-295
SK-MEL-5 = system: SK-MEL-5
SNB-19 = system: SNB-19
SNB-75 = system: SNB-75
T47D = system: T47D
HCC 2998 = system: HCC 2998

Measured: GI50

CSc1cccc(NC(=O)OC2CCCCCCCCCCC2)c1
28.8 µM: HCT-15
inactive: A498 21.7 µM | COLO 205 14.5 µM | EKVX 19.1 µM | HOP-62 18.8 µM | HOP-92 27.4 µM | K562 16.4 µM | LOX IMVI 18 µM | MCF7 20.6 µM | MDA-N 21 µM | Malme-3M 24.8 µM | NCI/ADR-RES 21.4 µM | OVCAR-3 10.5 µM | PC-3 31 µM | SF-295 11.9 µM | SK-MEL-5 15.4 µM | SNB-19 37.5 µM | SNB-75 35.2 µM | T47D 25.4 µM

Cn1c(=O)c2c(ncn2CN2CCN(Cn3cnc4c3c(=O)n(C)c(=O)n4C)CC2)n(C)c1=O
inactive: A498 > 100 µM | COLO 205 39.4 µM | EKVX 29.1 µM | HOP-62 > 100 µM | HOP-92 52 µM | K562 31.7 µM | LOX IMVI 24.2 µM | MCF7 16.9 µM | MDA-N 50.2 µM | Malme-3M 73.6 µM | NCI/ADR-RES > 100 µM | OVCAR-3 > 100 µM | PC-3 53.5 µM | SF-295 > 100 µM | SK-MEL-5 > 100 µM | SNB-19 > 100 µM | SNB-75 74.8 µM | T47D 30.5 µM
27.6 µM: HCT-15

O=[N+]([O-])c1cc2[nH]nnc2c2nonc12
29.2 µM: HCT-15
inactive: COLO 205 17.5 µM | EKVX 65.8 µM | HCC 2998 17.9 µM | HOP-62 55 µM | HOP-92 36.5 µM | K562 22.8 µM | LOX IMVI 20.1 µM | MCF7 3.24 µM | MDA-N 20.6 µM | Malme-3M 35.2 µM | NCI/ADR-RES 48.3 µM | OVCAR-3 33.5 µM | PC-3 49.4 µM | SF-295 31.7 µM | SK-MEL-5 11.9 µM | SNB-19 30.7 µM | SNB-75 38.5 µM | T47D > 100 µM

CC(=O)/C=C1/C(=O)C(CC(C)C)=C1CC(C)C
> 100 µM: HCT-15
inactive: A498 > 100 µM | COLO 205 > 100 µM | EKVX > 100 µM | HOP-62 > 100 µM | HOP-92 > 100 µM | LOX IMVI > 100 µM | MCF7 > 100 µM | MDA-N > 100 µM | Malme-3M > 100 µM | NCI/ADR-RES > 100 µM | PC-3 > 100 µM | SF-295 > 100 µM | SK-MEL-5 > 100 µM | SNB-19 > 100 µM | SNB-75 > 100 µM | T47D > 100 µM

N#C/C(C(=O)Nc1ccc(Cl)cc1)=C(/N)N1CCCC1
inactive: A498 > 100 µM | COLO 205 > 100 µM | EKVX > 100 µM | HCC 2998 > 100 µM | HOP-62 > 100 µM | HOP-92 > 100 µM | K562 > 100 µM | LOX IMVI > 100 µM | MCF7 > 100 µM | MDA-N > 100 µM | NCI/ADR-RES > 100 µM | OVCAR-3 > 100 µM | PC-3 > 100 µM | SF-295 > 100 µM | SK-MEL-5 > 100 µM | SNB-19 > 100 µM | SNB-75 > 100 µM | T47D > 100 µM
> 100 µM: HCT-15

O=[N+]([O-])c1cccc2nc3ccccc3c(NCCCNc3c4ccccc4nc4cccc([N+](=O)[O-])c34)c12
active: COLO 205 0.0102 µM | EKVX 0.0312 µM | HCC 2998 0.0157 µM | HOP-62 < 0.0156 µM | HOP-92 < 0.01 µM | K562 < 0.01 µM | LOX IMVI 0.0977 µM | MCF7 0.0151 µM | MDA-N 0.0123 µM | Malme-3M 0.0378 µM | NCI/ADR-RES 0.249 µM | OVCAR-3 < 0.0258 µM | PC-3 0.0343 µM | SF-295 0.037 µM | SK-MEL-5 0.0163 µM | SNB-19 0.0137 µM | SNB-75 0.0328 µM | T47D 0.0537 µM
< 0.0138 µM: HCT-15

Cc1cc(=O)[nH]c2c1C(=O)c1c(C)cc(=O)n(C)c1C2=O
0.123 µM: HCT-15
active: A498 0.214 µM | COLO 205 0.0162 µM | EKVX 0.205 µM | HCC 2998 0.0261 µM | HOP-62 0.0514 µM | K562 0.122 µM | LOX IMVI 0.122 µM | MCF7 0.0168 µM | MDA-N 0.0184 µM | Malme-3M 0.00177 µM | NCI/ADR-RES 0.0889 µM | OVCAR-3 0.0508 µM | PC-3 0.157 µM | SF-295 0.167 µM | SK-MEL-5 0.0151 µM | SNB-19 0.0185 µM | SNB-75 0.0176 µM | T47D 0.303 µM

COc1ccc2c(-c3csc(-c4c[nH]c5ccc(Br)cc45)n3)c[nH]c2c1
inactive: A498 89.3 µM | COLO 205 54.1 µM | EKVX 32.1 µM | HOP-62 62.4 µM | HOP-92 64.3 µM | K562 15.2 µM | LOX IMVI 64.1 µM | MCF7 54.1 µM | MDA-N 8.26 µM | Malme-3M 17.5 µM | NCI/ADR-RES 90.6 µM | OVCAR-3 > 100 µM | PC-3 10.4 µM | SF-295 73.5 µM | SK-MEL-5 > 100 µM | SNB-19 > 100 µM | T47D 59.3 µM
7.53 µM: HCT-15

Oc1nc2c(c(-c3cccc(Cl)c3)n1)COC/C2=C\c1cccc(Cl)c1
> 100 µM: HCT-15
inactive: A498 > 100 µM | COLO 205 > 100 µM | EKVX > 100 µM | HCC 2998 > 100 µM | HOP-62 > 100 µM | HOP-92 > 100 µM | K562 > 100 µM | LOX IMVI > 100 µM | MCF7 > 100 µM | MDA-N > 100 µM | NCI/ADR-RES > 100 µM | OVCAR-3 > 100 µM | PC-3 > 100 µM | SF-295 > 100 µM | SK-MEL-5 > 100 µM | SNB-19 > 100 µM | SNB-75 > 100 µM | T47D > 100 µM

O=C(OCC1CCCN2CCCCC12)c1cccnc1 (centres undefined)
> 100 µM: HCT-15
inactive: A498 > 100 µM | COLO 205 > 100 µM | EKVX > 100 µM | HCC 2998 > 100 µM | HOP-92 > 100 µM | K562 > 100 µM | LOX IMVI > 100 µM | MCF7 > 100 µM | MDA-N > 100 µM | Malme-3M > 100 µM | NCI/ADR-RES > 100 µM | PC-3 > 100 µM | SF-295 > 100 µM | SK-MEL-5 > 100 µM | SNB-19 > 100 µM | SNB-75 > 100 µM | T47D > 100 µM

O=C(CSc1nc2ccc(I)cc2c(=O)n1Cc1ccccc1)NNC(=S)Nc1ccccc1
inactive: A498 3.55 µM | COLO 205 23.1 µM | EKVX 1.73 µM | HCC 2998 43.3 µM | HOP-92 11.8 µM | K562 11.3 µM | LOX IMVI > 100 µM | MCF7 22.5 µM | MDA-N 30.3 µM | NCI/ADR-RES 77.6 µM | OVCAR-3 12.9 µM | PC-3 9.68 µM | SF-295 54 µM | SK-MEL-5 13.8 µM | SNB-19 41.3 µM | SNB-75 > 100 µM | T47D 23.5 µM
8.95 µM: HCT-15

CC1=C(C(=O)N(C(C)C)C(C)C)CC(C(=O)N(C(C)C)C(C)C)=C(C)N1
> 100 µM: HCT-15
inactive: A498 35.8 µM | COLO 205 > 100 µM | EKVX > 100 µM | HCC 2998 > 100 µM | HOP-62 > 100 µM | HOP-92 > 100 µM | K562 > 100 µM | LOX IMVI > 100 µM | MCF7 > 100 µM | MDA-N > 100 µM | NCI/ADR-RES > 100 µM | OVCAR-3 > 100 µM | PC-3 96.6 µM | SF-295 > 100 µM | SK-MEL-5 > 100 µM | SNB-19 > 100 µM | SNB-75 16.4 µM | T47D 49.3 µM

C=C1c2nc3ccccc3n2C=C(c2ccc(Cl)cc2)N1c1ccc(OCCN2CCCCC2)cc1
inactive: A498 > 45 µM | COLO 205 > 45 µM | EKVX > 45 µM | HCC 2998 > 100 µM | HOP-62 > 45 µM | HOP-92 > 45 µM | K562 > 45 µM | LOX IMVI > 45 µM | MCF7 > 45 µM | MDA-N 6.32 µM | Malme-3M 8.41 µM | NCI/ADR-RES > 45 µM | OVCAR-3 > 45 µM | PC-3 > 45 µM | SF-295 > 45 µM | SK-MEL-5 > 45 µM | SNB-19 > 45 µM | T47D > 45 µM
> 45 µM: HCT-15

O=C(Nc1ccc(S(=O)(=O)/N=c2\ncccn2C(=O)C(C(F)(F)F)C(F)(F)F)cc1)C(C(F)(F)F)C(F)(F)F
inactive: A498 > 100 µM | COLO 205 > 100 µM | EKVX > 100 µM | HCC 2998 > 100 µM | HOP-62 > 100 µM | K562 > 100 µM | LOX IMVI > 100 µM | MCF7 > 100 µM | MDA-N > 100 µM | Malme-3M 49.2 µM | NCI/ADR-RES > 100 µM | OVCAR-3 > 100 µM | PC-3 > 100 µM | SF-295 > 100 µM | SK-MEL-5 > 100 µM | SNB-19 > 100 µM | SNB-75 80.7 µM | T47D > 100 µM
> 100 µM: HCT-15

COc1cc(C[C@@H](C)N)cc(OC)c1
> 100 µM: HCT-15
inactive: A498 > 100 µM | COLO 205 > 100 µM | HCC 2998 > 100 µM | HOP-62 > 100 µM | K562 > 100 µM | LOX IMVI > 100 µM | MCF7 > 100 µM | MDA-N > 100 µM | Malme-3M > 100 µM | NCI/ADR-RES > 100 µM | OVCAR-3 > 100 µM | PC-3 > 100 µM | SF-295 > 100 µM | SK-MEL-5 > 100 µM | SNB-19 > 100 µM | SNB-75 21.8 µM | T47D > 100 µM
